Laboratory results: ChEMBL document CHEMBL3885881, “DrugMatrix”

Species on record: Rattus norvegicus
Assay: DrugMatrix - Regimen: Daily Repeat
Assay type: toxicity, organism-based, Sprague-Dawley
Set-up: regimen Daily Repeat, gender Male, age 6-8 weeks
Details: in vivo, po, route oral GAVAGE, vehicle .5 % CMC; for BASOPHIL / EOSINOPHIL / ERYTHROCYTE COUNT / HEMATOCRIT / HEMOGLOBIN / LEUKOCYTE COUNT / LYMPHOCYTE / MEAN CORPUSCULAR HEMOGLOBIN / MEAN CORPUSCULAR HEMOGLOBIN CONCENTRATION / MEAN CORPUSCULAR VOLUME / MONOCYTE / NEUTROPHIL / PLATELET COUNT: tissue Blood; for ALANINE AMINOTRANSFERASE / ALBUMIN / ALKALINE PHOSPHATASE / ASPARTATE AMINOTRANSFERASE / BLOOD UREA NITROGEN / CHLORIDE / CHOLESTEROL / CREATINE PHOSPHOKINASE / CREATININE / GLUCOSE / PHOSPHORUS / POTASSIUM / SODIUM / TOTAL PROTEIN: tissue Plasma
[1] = 0 mg/kg, 72 h, dose level Control, time 3 day
[2] = 0 mg/kg, 120 h, dose level Control, time 5 day
[3] = 3 mg/kg, 72 h, dose level Low, time 3 day
[4] = 3 mg/kg, 120 h, dose level Low, time 5 day
[5] = 37 mg/kg, 72 h, dose level High, time 3 day
[6] = 37 mg/kg, 120 h, dose level High, time 5 day

In the case of `CN1CCC(=C2c3ccccc3C=Cc3ccccc32)CC1` [CYPROHEPTADINE], the BASOPHIL [1] was 0%, the EOSINOPHIL [1] was 0.33% and the “ERYTHROCYTE COUNT” value [1] was 6.03 x10E6/uL. For the same molecule, the HEMATOCRIT [1] was 38.8%, the HEMOGLOBIN [1] was 14.26 G/DL and the “LEUKOCYTE COUNT” value [1] was 10.64 x10E3/uL. The LYMPHOCYTE [1] was 83.33%, the “MEAN CORPUSCULAR HEMOGLOBIN” value [1] was 23.64 pg and the “MEAN CORPUSCULAR HEMOGLOBIN CONCENTRATION” value [1] was 36.74 G/DL. The “MEAN CORPUSCULAR VOLUME” value [1] was 64.32 fL, the MONOCYTE [1] was 3.33% and the NEUTROPHIL [1] was 13%. The “PLATELET COUNT” value [1] was 1264.4 x10E3/uL, the “ALANINE AMINOTRANSFERASE” value [1] was 38.83 u/L and the ALBUMIN [1] was 3.55 G/DL. For the same molecule, the “ALKALINE PHOSPHATASE” value [1] was 368.33 u/L, the “ASPARTATE AMINOTRANSFERASE” value [1] was 66.17 u/L and the “BLOOD UREA NITROGEN” value [1] was 15.67 mg/dL. For the same molecule, the CHLORIDE [1] was 104.33 MEQ/L, the CHOLESTEROL [1] was 76.5 mg/dL and the “CREATINE PHOSPHOKINASE” value [1] was 166.83 u/L. The CREATININE [1] was 0.52 mg/dL, the GLUCOSE [1] was 173.17 mg/dL and the PHOSPHORUS [1] was 11.68 mg/dL. For the same molecule, the POTASSIUM [1] was 6.43 MEQ/L, the SODIUM [1] was 149.5 MEQ/L and the “TOTAL PROTEIN” value [1] was 5.93 G/DL. For the same molecule, the BASOPHIL [2] was 0%, the EOSINOPHIL [2] was 0% and the “ERYTHROCYTE COUNT” value [2] was 5.88 x10E6/uL. The HEMATOCRIT [2] was 37.87%, the HEMOGLOBIN [2] was 14.48 G/DL and the “LEUKOCYTE COUNT” value [2] was 12.43 x10E3/uL. The LYMPHOCYTE [2] was 84.17%, the “MEAN CORPUSCULAR HEMOGLOBIN” value [2] was 24.65 pg and the “MEAN CORPUSCULAR HEMOGLOBIN CONCENTRATION” value [2] was 38.25 G/DL. For the same molecule, the “MEAN CORPUSCULAR VOLUME” value [2] was 64.47 fL, the MONOCYTE [2] was 4.33% and the NEUTROPHIL [2] was 11.5%. The “PLATELET COUNT” value [2] was 1182.33 x10E3/uL, the “ALANINE AMINOTRANSFERASE” value [2] was 38.67 u/L and the ALBUMIN [2] was 3.55 G/DL. The “ALKALINE PHOSPHATASE” value [2] was 342.5 u/L, the “ASPARTATE AMINOTRANSFERASE” value [2] was 63.33 u/L and the “BLOOD UREA NITROGEN” value [2] was 15.5 mg/dL. The CHLORIDE [2] was 104 MEQ/L, the CHOLESTEROL [2] was 75.5 mg/dL and the “CREATINE PHOSPHOKINASE” value [2] was 142.5 u/L. For the same molecule, the CREATININE [2] was 0.62 mg/dL, the GLUCOSE [2] was 165.17 mg/dL and the PHOSPHORUS [2] was 10.87 mg/dL. The POTASSIUM [2] was 6.85 MEQ/L, the SODIUM [2] was 150.17 MEQ/L and the “TOTAL PROTEIN” value [2] was 5.93 G/DL. For the same molecule, the BASOPHIL [3] was 0%, the EOSINOPHIL [3] was 0% and the “ERYTHROCYTE COUNT” value [3] was 6.1 x10E6/uL. The HEMATOCRIT [3] was 40.23%, the HEMOGLOBIN [3] was 15.13 G/DL and the “LEUKOCYTE COUNT” value [3] was 11.03 x10E3/uL. For the same molecule, the LYMPHOCYTE [3] was 89.33%, the “MEAN CORPUSCULAR HEMOGLOBIN” value [3] was 24.8 pg and the “MEAN CORPUSCULAR HEMOGLOBIN CONCENTRATION” value [3] was 37.63 G/DL. For the same molecule, the “MEAN CORPUSCULAR VOLUME” value [3] was 65.97 fL, the MONOCYTE [3] was 1% and the NEUTROPHIL [3] was 9.67%. The “PLATELET COUNT” value [3] was 1191.33 x10E3/uL, the “ALANINE AMINOTRANSFERASE” value [3] was 32.67 u/L and the ALBUMIN [3] was 3.6 G/DL. For the same molecule, the “ALKALINE PHOSPHATASE” value [3] was 369 u/L, the “ASPARTATE AMINOTRANSFERASE” value [3] was 58 u/L and the “BLOOD UREA NITROGEN” value [3] was 13.33 mg/dL. The CHLORIDE [3] was 105.67 MEQ/L, the CHOLESTEROL [3] was 75.67 mg/dL and the “CREATINE PHOSPHOKINASE” value [3] was 139.67 u/L. The CREATININE [3] was 0.47 mg/dL, the GLUCOSE [3] was 159 mg/dL and the PHOSPHORUS [3] was 11.23 mg/dL. For the same molecule, the POTASSIUM [3] was 6.9 MEQ/L, the SODIUM [3] was 151.33 MEQ/L and the “TOTAL PROTEIN” value [3] was 5.8 G/DL. For the same molecule, the BASOPHIL [4] was 0%, the EOSINOPHIL [4] was 0.67% and the “ERYTHROCYTE COUNT” value [4] was 6.35 x10E6/uL. For the same molecule, the HEMATOCRIT [4] was 39.23%, the HEMOGLOBIN [4] was 14.37 G/DL and the “LEUKOCYTE COUNT” value [4] was 13.2 x10E3/uL. The LYMPHOCYTE [4] was 89.33%, the “MEAN CORPUSCULAR HEMOGLOBIN” value [4] was 22.67 pg and the “MEAN CORPUSCULAR HEMOGLOBIN CONCENTRATION” value [4] was 36.63 G/DL. For the same molecule, the “MEAN CORPUSCULAR VOLUME” value [4] was 61.83 fL, the MONOCYTE [4] was 1% and the NEUTROPHIL [4] was 9%. The “PLATELET COUNT” value [4] was 1248.67 x10E3/uL, the “ALANINE AMINOTRANSFERASE” value [4] was 39.67 u/L and the ALBUMIN [4] was 3.4 G/DL. For the same molecule, the “ALKALINE PHOSPHATASE” value [4] was 503.67 u/L, the “ASPARTATE AMINOTRANSFERASE” value [4] was 62.67 u/L and the “BLOOD UREA NITROGEN” value [4] was 13.67 mg/dL. The CHLORIDE [4] was 103.33 MEQ/L, the CHOLESTEROL [4] was 70 mg/dL and the “CREATINE PHOSPHOKINASE” value [4] was 134 u/L. For the same molecule, the CREATININE [4] was 0.53 mg/dL, the GLUCOSE [4] was 189.33 mg/dL and the PHOSPHORUS [4] was 12.93 mg/dL. The POTASSIUM [4] was 6.83 MEQ/L, the SODIUM [4] was 147.67 MEQ/L and the “TOTAL PROTEIN” value [4] was 5.63 G/DL. The BASOPHIL [5] was 0%, the EOSINOPHIL [5] was 0% and the “ERYTHROCYTE COUNT” value [5] was 5.89 x10E6/uL. The HEMATOCRIT [5] was 38%, the HEMOGLOBIN [5] was 13.37 G/DL and the “LEUKOCYTE COUNT” value [5] was 9.03 x10E3/uL. For the same molecule, the LYMPHOCYTE [5] was 86%, the “MEAN CORPUSCULAR HEMOGLOBIN” value [5] was 22.7 pg and the “MEAN CORPUSCULAR HEMOGLOBIN CONCENTRATION” value [5] was 35.17 G/DL. For the same molecule, the “MEAN CORPUSCULAR VOLUME” value [5] was 64.53 fL, the MONOCYTE [5] was 3.33% and the NEUTROPHIL [5] was 10.67%. The “PLATELET COUNT” value [5] was 1233.33 x10E3/uL, the “ALANINE AMINOTRANSFERASE” value [5] was 33 u/L and the ALBUMIN [5] was 3.67 G/DL. The “ALKALINE PHOSPHATASE” value [5] was 296.33 u/L, the “ASPARTATE AMINOTRANSFERASE” value [5] was 50.33 u/L and the “BLOOD UREA NITROGEN” value [5] was 15 mg/dL. The CHLORIDE [5] was 104.67 MEQ/L, the CHOLESTEROL [5] was 62.67 mg/dL and the “CREATINE PHOSPHOKINASE” value [5] was 128 u/L. It also gave a CREATININE [5] of 0.5 mg/dL, a GLUCOSE [5] of 167.33 mg/dL and a PHOSPHORUS [5] of 12.37 mg/dL. For the same molecule, the POTASSIUM [5] was 7.2 MEQ/L, the SODIUM [5] was 150.67 MEQ/L and the “TOTAL PROTEIN” value [5] was 5.93 G/DL. The BASOPHIL [6] was 0%, the EOSINOPHIL [6] was 0.33% and the “ERYTHROCYTE COUNT” value [6] was 5.95 x10E6/uL. For the same molecule, the HEMATOCRIT [6] was 37.4%, the HEMOGLOBIN [6] was 13.8 G/DL and the “LEUKOCYTE COUNT” value [6] was 11.57 x10E3/uL. For the same molecule, the LYMPHOCYTE [6] was 87.33%, the “MEAN CORPUSCULAR HEMOGLOBIN” value [6] was 23.23 pg and the “MEAN CORPUSCULAR HEMOGLOBIN CONCENTRATION” value [6] was 36.93 G/DL. For the same molecule, the “MEAN CORPUSCULAR VOLUME” value [6] was 62.9 fL, the MONOCYTE [6] was 0% and the NEUTROPHIL [6] was 12.33%. The “PLATELET COUNT” value [6] was 1286.67 x10E3/uL, the “ALANINE AMINOTRANSFERASE” value [6] was 35 u/L and the ALBUMIN [6] was 3.4 G/DL. For the same molecule, the “ALKALINE PHOSPHATASE” value [6] was 311.67 u/L, the “ASPARTATE AMINOTRANSFERASE” value [6] was 52 u/L and the “BLOOD UREA NITROGEN” value [6] was 14 mg/dL. The CHLORIDE [6] was 102.33 MEQ/L, the CHOLESTEROL [6] was 50.67 mg/dL and the “CREATINE PHOSPHOKINASE” value [6] was 124 u/L. It also gave a CREATININE [6] of 0.53 mg/dL, a GLUCOSE [6] of 159.67 mg/dL and a PHOSPHORUS [6] of 12.5 mg/dL. For the same molecule, the POTASSIUM [6] was 6.77 MEQ/L, the SODIUM [6] was 148.67 MEQ/L and the “TOTAL PROTEIN” value [6] was 5.7 G/DL.
